Experimental data from publication PMC7913237, “Small-Molecule Anti-HIV-1 Agents Based on HIV-1 Capsid Proteins” (Biomolecules, 2021).
Read-outs that look alike come from different tables or passages of the source.

Assays:
Format in all cases: cell-based
X4-HIV-1 (NL4-3 strain) = assay: Anti-HIV activity: protection against HIV-1 (NL4-3 strain)-induced cytopathogenicity in MT-4 cells, MTT assay; conditions: for EC50: 50% protection from HIV-1 (NL4-3 strain)-induced cytopathogenicity in MT-4 cells, 5 days, mean or mean ± SD; for inhibition at 25 µM: Human immunodeficiency virus 1, NL43, MT4, HIV-1 (NL4-3)-induced cytopathogenicity in MT-4 cells, printed in EC50 column; for anti-HIV activity (in words): summary of MTT assay results
Experimental: (§1) For virus preparation, 293T/17 cells (Invitrogen), which are maintained in Dulbecco’s modified Eagle medium (DMEM) containing 10% FBS, in a T-75 flask were transfected with 10 μg of the pNL4-3 construct by the calcium phosphate method. The supernatant was collected 48 h after transfection, passed through a 0.45 μm filter, and stored at −80 °C as a stock virus. Inhibitory activities of test compounds against X4-HIV-1 (NL4-3 strain)-induced cytopathogenicity in MT-4 cells, which are maintained in RPMI-1640 containing 10% FBS, were assessed by the MTT assay. Various concentrations of test compound solutions were added to HIV-1-infected MT-4 cells at multiplicity of infection (MOI) of 0.001, and placed in wells of a 96-well microplate. The test compounds and the reference compounds such as AZT and AMD3100 were diluted by two-fold and five-fold, respectively. After 5 days’ incubation at 37 °C in a CO2 incubator, the number of viable cells was determined by the MTT assay. Cytotoxicities of the test compounds were determined based on reduction of the viability of MT-4 cells by the MTT assay. The p24 antigen content in the culture supernatant was measured using HIV-1 p24 antigen enzyme-linked immunosorbent assay (ELISA) kit according to manufacturer’s instructions (Zeptometrix, Buffalo, NY, USA). A reverse transcriptase inhibitor, AZT, a CXCR4 antagonist, AMD3100 (Sigma Aldrich, St. Louis, MO, USA) were employed as positive control compounds with anti-HIV activity.
(§2) The anti-HIV activity of the synthesized compounds was assessed based on protection against HIV-1 (NL4-3 strain)-induced cytopathogenicity in MT-4 cells by an MTT assay. The cytotoxicity of these compounds was determined based on reduction of the viability of MT-4 cells determined by an MTT assay.

[1] = Cytotoxicity: reduction of the viability of MT-4 cells, MTT assay; conditions: human, MT-4 cells, 50% reduction of the viability of MT-4 cells
Experimental: as §1, §2

[2] = tested on: HIV-1 (NL4-3 strain) p24 antigen production; assay: microbe, parasite or virus in culture
Experimental: as §1
These compounds were also evaluated by a different method, using an enzyme-linked immune sorbent assay (ELISA) based on their inhibitory effect against the viral p24 antigen expression in NL4-3 strain-infected MT-4 cells.

MT-4 cells = assay: Cytotoxicity: reduction of the viability of MT-4 cells, MTT assay; conditions: for concentration below which no cytotoxicity was exhibited: MT-4 cells; for cytotoxicity (in words): MT-4 cells MTT assay; for CC50: 50% reduction of the viability of MT-4 cells
Experimental: as §1, §2

[3] = Human immunodeficiency virus 1, NL43, MT4, 120 h
[4] = Human immunodeficiency virus 1, NL43, MT4, read-out: p24 ELISA EC50, 50% inhibition of viral p24 antigen production in NL4-3 strain-infected MT-4 cells

SMILES: c1cc(CN2CCCNCCNCCCNCC2)ccc1CN1CCCNCCNCCCNCC1 [AMD3100, reference compound]
- EC50 (X4-HIV-1 (NL4-3 strain); [3]): 0.027 ± 0.0077 µM
- CC50 at 5 days [1]: > 50 µM
- EC50 [2, 4]: 0.029 µM

SMILES: C[C@@H](CCS(C)(=O)=O)OC(=O)[C@@H](N)c1ccccc1-c1c[nH]c2ccccc12 [Compound 38]
- inhibition at 25 µM (X4-HIV-1 (NL4-3 strain)): 34%
- anti-HIV activity (in words) (X4-HIV-1 (NL4-3 strain)): weak anti-HIV activity
- CC50 at 5 days [1]: > 50 µM
- concentration below which no cytotoxicity was exhibited (MT-4 cells): ≥ 50 µM

SMILES: C[C@@H](CCSC(C)(C)C)OC(=O)[C@@H](N)c1ccccc1-c1c[nH]c2ccccc12 [Compound 34]
- EC50 (X4-HIV-1 (NL4-3 strain); [3]): 12 µM
- CC50 at 5 days [1]: 17 µM

SMILES: CSCC[C@H](C)OC(=O)[C@@H](N)c1ccccc1-c1coc2ccccc12 [Compound 27]
- inhibition at 25 µM (X4-HIV-1 (NL4-3 strain)): 11%
- anti-HIV activity (in words) (X4-HIV-1 (NL4-3 strain)): weak anti-HIV activity
- CC50 at 5 days [1]: 34 µM
- cytotoxicity (in words) (MT-4 cells): relatively weak cytotoxicity

SMILES: CC(C)SCC[C@H](C)OC(=O)[C@@H](N)c1ccccc1-c1c[nH]c2ccccc12 [Compound 35]
- EC50 (X4-HIV-1 (NL4-3 strain); [3]): 10 µM
- CC50 at 5 days [1]: 18 µM

SMILES: CSCC[C@H](C)OC(=O)[C@@H](N)c1ccccc1-c1ccc2ccccc2c1 [Compound 24]
- inhibition at 25 µM (X4-HIV-1 (NL4-3 strain)): 40 ± 4.6%
- anti-HIV activity (in words) (X4-HIV-1 (NL4-3 strain)): weak anti-HIV activity
- CC50 at 5 days [1]: 30 ± 2 µM
- cytotoxicity (in words) (MT-4 cells): relatively weak cytotoxicity

SMILES: C[C@@H](CCSc1ccccc1)OC(=O)[C@@H](N)c1ccccc1-c1c[nH]c2ccccc12 [Compound 36]
- EC50 (X4-HIV-1 (NL4-3 strain); [3]): 11 µM
- CC50 at 5 days [1]: 17 µM

SMILES: COCC[C@H](C)OC(=O)[C@@H](N)c1ccccc1-c1c[nH]c2ccccc12 [Compound 30]
- EC50 (X4-HIV-1 (NL4-3 strain); [3]): 26 ± 2.9 µM
- anti-HIV activity (in words) (X4-HIV-1 (NL4-3 strain)): weak anti-HIV activity
- CC50 at 5 days [1]: > 50 µM
- concentration below which no cytotoxicity was exhibited (MT-4 cells): ≥ 50 µM

SMILES: CSCC[C@H](C)OC(=O)[C@@H](N)c1ccccc1-c1cccc2ccccc12 [Compound 22]
- inhibition at 25 µM (X4-HIV-1 (NL4-3 strain)): 31 ± 8.5%
- anti-HIV activity (in words) (X4-HIV-1 (NL4-3 strain)): weak anti-HIV activity
- CC50 at 5 days [1]: 33 ± 1.5 µM
- cytotoxicity (in words) (MT-4 cells): relatively weak cytotoxicity

SMILES: CSCC[C@H](C)OC(=O)[C@@H](N)c1ccccc1-c1c[nH]c2ccccc12 [MKN-1 (1)]
- EC50 (X4-HIV-1 (NL4-3 strain)): 4.5 ± 2.3 µM
- anti-HIV activity (in words) (X4-HIV-1 (NL4-3 strain)): high anti-HIV activity
- CC50 (MT-4 cells): 26 ± 8.8 µM
- EC50 ([2]; read-out: p24 ELISA EC50, 50% inhibition of viral p24 antigen production in NL4-3 strain-infected MT-4 cells): 8.5 µM

SMILES: CSCC[C@H](C)OC(=O)[C@@H](N)c1ccccc1-c1csc2ccccc12 [Compound 28]
- inhibition at 25 µM (X4-HIV-1 (NL4-3 strain)): 31%
- anti-HIV activity (in words) (X4-HIV-1 (NL4-3 strain)): weak anti-HIV activity
- CC50 at 5 days [1]: 45 µM
- cytotoxicity (in words) (MT-4 cells): relatively weak cytotoxicity

SMILES: CSCC[C@@H](C)OC(=O)[C@@H](N)c1ccccc1-c1c[nH]c2ccccc12 [MKN-1B (1B)]
- EC50 (X4-HIV-1 (NL4-3 strain); [3]): 24 µM
- anti-HIV activity (in words) (X4-HIV-1 (NL4-3 strain)): moderate anti-HIV activity
- CC50 at 5 days [1]: 37 µM
- EC50 [2, 4]: 22 µM

SMILES: CSCC[C@H](C)OC(=O)[C@@H](N)c1ccccc1-c1c[nH]c2ccccc12 [MKN-1A (1A)]
- EC50 (X4-HIV-1 (NL4-3 strain); [3]): 8 µM
- anti-HIV activity (in words) (X4-HIV-1 (NL4-3 strain)): significant anti-HIV activity
- CC50 at 5 days [1]: 38 µM
- EC50 [2, 4]: 14 µM

SMILES: Cc1cn([C@H]2C[C@H](N=[N+]=[N-])[C@@H](CO)O2)c(=O)[nH]c1=O [AZT, reference compound]
- EC50 (X4-HIV-1 (NL4-3 strain)): 0.024 ± 0.015 µM
- CC50 (MT-4 cells): 79 ± 42 µM
- EC50 ([2]; 50% inhibition of viral p24 antigen production in NL4-3 strain-infected MT-4 cells, read-out: p24 ELISA EC50): 0.047 µM
